Test results reported in publication PMC3075274, “Expression and Activity of a Novel Cathelicidin from Domestic Cats” (PLoS ONE, 2011).
Values after ≈ are worked out from the molar mass of the structure shown. Read-outs that look alike come from different tables or passages of the source. Where no end group is shown, it is not given here.

Key:
[1] = test system: E. coli D31; conditions: radial diffusion assay, 10 mM sodium phosphate pH 7.4, peptide 4-1000 ng/µl in 0.05% acetic acid, 3 h 37°C then overlay overnight
Procedure: (§1) A radial diffusion antimicrobial assay was used to assess the antimicrobial activity of feCath and LL-37 [24]. Briefly, overnight bacterial cultures were seeded into fresh tryptic soy broth (TSB). Bacteria was grown to an optical density of 0.2 at A600, pelleted and resuspended in an equal volume of 10 mM sodium phosphate buffer, pH 7.4. Resuspended bacteria were added to underlay minimal-media agarose, and peptide, at various concentrations (1000 ng/µl, 333 ng/µl, 111 ng/µl, 37 ng/µl, 12 ng/µl and 4 ng/µl, dissolved in 0.05% acetic acid), was instilled into adjacent punch-wells. Buffer alone (0.05% acetic acid) was used as the negative control. After 3 hours of incubation at 37°C, overlay nutrient rich agarose was added and allowed to incubate overnight. The following day, zones of clearance were measured. To quantitate zones of clearance, the diameter of the agarose punch (3 mm) was subtracted from the diameter of antimicrobial clearance (in mm), and the resulting number was multiplied by 10.

[2] = test system: Listeria monocytogenes; conditions: radial diffusion assay, 10 mM sodium phosphate pH 7.4, peptide 4-1000 ng/µl in 0.05% acetic acid, 3 h 37°C then overlay overnight
Procedure: as §1

[3] = test system: Salmonella enterica serovar Typhimurium (IR715)
Procedure: as §1

[4] = test system: Staphylococcus pseudintermedius (clinical isolate); conditions: radial diffusion assay, 10 mM sodium phosphate pH 7.4, peptide 4-1000 ng/µl in 0.05% acetic acid, 3 h 37°C then overlay overnight
Procedure: as §1

[5] = test system: HaeIII digested Phi-X174 phage DNA; assay: DNA binding assay (gel electrophoresis, retarded migration); conditions: Phi-X174 HaeIII DNA 20 ng/µl; peptide 10, 30, 100 ng/µl; 5 min room temperature, 0.05% acetic acid; agarose gel, ethidium bromide
Procedure: Hae-III digested phage DNA Phi-X174 (20 ng/µl) (Roche) was incubated with varying amounts of LL-37, feCath and magainin (10 ng/µl, 30 ng/µl and 100 ng/µl) for 5 min at room temperature. The entire reaction was resolved using agarose gel electrophoresis (1% w/v) and stained with ethidium bromide.
Figure 6 Gel electrophoresis of DNA binding assay. A DNA ladder (HaeIII digested Phi-X174, 200 ng) was incubated with increasing concentrations of peptide (100 ng, 300 ng, 1000 ng) for 5 minutes in 0.05% acetic acid at room temperature. The reaction mixture was resolved using agarose gel electrophoresis ([…]). Arrow indicates retarded migration of Phi-X174 DNA into the gel.

Compound	MIC [1] [mg/L]	MIC [2] [mg/L]	MIC ([3]; Salmonella enterica serovar Typhimurium (IR715), radial diffusion assay, 10 mM sodium phosphate pH 7.4, peptide 4-1000 ng/µl in 0.05% acetic acid, 3 h 37°C then overlay overnight) [mg/L]	MIC [4] [mg/L]	DNA binding (retardation of DNA migration into the gel) [5]	MIC ([3]; serovar Typhimurium (IR715, 3 h, pH 7.4)) [mg/L]
CC[C@H](C)[C@H](NC(=O)[C@H](CCCCN)NC(=O)[C@H](CCC(=O)O)NC(=O)[C@H](CCCCN)NC(=O)[C@H](CO)NC(=O)[C@H](CCCCN)NC(=O)[C@H](CCCNC(=N)N)NC(=O)[C@H](Cc1ccccc1)NC(=O)[C@H](Cc1ccccc1)NC(=O)[C@H](CC(=O)O)NC(=O)CNC(=O)[C@H](CC(C)C)NC(=O)[C@@H](N)CC(C)C)C(=O)NCC(=O)N[C@@H](CCCCN)C(=O)N[C@@H](CCC(=O)O)C(=O)N[C@@H](Cc1ccccc1)C(=O)N[C@@H](CCCCN)C(=O)N[C@@H](CCCNC(=N)N)C(=O)N[C@H](C(=O)N[C@H](C(=O)N[C@@H](CCC(N)=O)C(=O)N[C@@H](CCCNC(=N)N)C(=O)N[C@H](C(=O)N[C@@H](CCCCN)C(=O)N[C@@H](CC(=O)O)C(=O)N[C@@H](Cc1ccccc1)C(=O)N[C@@H](CC(C)C)C(=O)N[C@@H](CCCNC(=N)N)C(=O)N[C@@H](CC(N)=O)C(=O)N[C@@H](CC(C)C)C(=O)N[C@H](C(=O)N1CCC[C@H]1C(=O)N[C@@H](CCCNC(=N)N)C(=O)N[C@H](C(=O)N[C@@H](CCC(=O)O)C(=O)N[C@@H](CO)C(=O)O)[C@@H](C)O)C(C)C)[C@@H](C)CC)C(C)C)[C@@H](C)CC [LL-37, reference compound]	5 (≈ 1.11 µM)	7 (≈ 1.56 µM)	12 (≈ 2.67 µM)	15 (≈ 3.34 µM)		
Magainin					lacks this ability to bind DNA	
QLGELIQQGGQKIVEKIQKIGQRIRDFFSNLRPRQEA [feCath]	21					29
